{"source": "patent US10807992B2", "about": "“Single enantiomer antiparasitic compounds” (priority 2017, dated 2020)", "tested_on": "Ixodes scapularis", "assay": "In vitro contact activity against adult ticks (coated vial), I. scapularis", "conditions": "for mortality at 0.006 µM: Trial 1, dose 0.006 μM; for mortality at 0.024 µM: Trial 1, dose 0.024 μM; for mortality at 0.098 µM: Trial 1, dose 0.098 μM; for mortality at 0.39 µM: Trial 1, dose 0.39 μM; for mortality at 1.56 µM: Trial 1, dose 1.56 μM; for mortality at 6.25 µM: Trial 1, dose 6.25 μM; for mortality at 25 µM: Trial 1, dose 25 μM; for mortality at 100 µM: Trial 1, dose 100 μM", "method": "Rhipicephalus sanguineus, Dermacentor variabilis, Amblyomma americanum, (Ecto Services, Inc., Henderson, N.C.) and Ixodes scapularis (Oklahoma State University, Stillwater, Okla.) aged between 2-4 weeks post molt were held in an environmental chamber at 24° C., 80% humidity with 12-hour light/dark cycles.\nFor tick assays, vial caps were pre-drilled with a single hole in the center of each cap to allow air exchange. A filter paper (Whatman Grade 540 2.1 cm) was placed in the lid of each vial. An aliquot from each compound stock was added to an acetone/triton solution to achieve the desired top doses for the study. Serial dilutions were conducted from the top dose (i.e. 100 ppm) to achieve the desired titration range for EC50 and EC90 determination. For R. sanguineus, D. variabilis, and A. americanum, the final DMSO concentration in each test vial was 0.5%. For I. scapularis, compounds were solubilized directly in an acetone/triton solution due to I. scapularis' sensitivity to DMSO. A 459 μL aliquot of each compound formulation was transferred to a vial containing a Whatman Grade 540 2.1 cm filter paper. Vials were immediately placed on an unheated roller unit to allow for an even coating of the vial walls. After vials were coated, 41 μL of each compound formulation was added to the filter paper embedded in each vial cap. Each cap was allowed to dry. The vials were loosely capped and allowed to dry for a minimum of four hours in a chemical fume hood.\nCompounds tested were: the C1 racemate, C1 (R) enantiomer, and the C1 (S) enantiomer. For Trial 3, the C1 (R) enantiomer and the C1 (S) enantiomer were further chiral purified to achieve >99% purity.\nTen adult ticks were added to each vial and held at 24° C., 80% humidity with 12-hour light/dark cycles. Adult ticks were assessed for percent mortality at various time points between 2 hours and 48 hours post infestation. Ticks were stimulated on a heated roller unit and evaluated. Ticks showing no movement, or very slow and uncoordinated movement were noted as dead.", "data": [{"smiles": "O=C(CC(F)(F)F)N1CC2(C1)OCc1cc(C3=NS[C@@](c4cc(Cl)c(F)c(Cl)c4)(C(F)(F)F)C3)ccc12", "note": "[C1 (S) enantiomer, (S)-1-[6-[5-(3,5-dichloro-4-fluoro-phenyl)-5-(trifluoromethyl)-4H-isothiazol-3-yl]spiro[1H-isobenzofuran-3,3′-azetidine]-1′-yl]-3,3,3-trifluoro-propan-1-one]", "values": [{"measurement": "mortality at 0.006 µM", "setting": "2 h, Rep1", "value": 0, "unit": "%"}, {"measurement": "mortality at 0.006 µM", "setting": "2 h, Rep2", "value": 0, "unit": "%"}, {"measurement": "mortality at 0.024 µM", "setting": "2 h, Rep1", "value": 0, "unit": "%"}, {"measurement": "mortality at 0.024 µM", "setting": "2 h, Rep2", "value": 0, "unit": "%"}, {"measurement": "mortality at 0.098 µM", "setting": "2 h, Rep1", "value": 0, "unit": "%"}, {"measurement": "mortality at 0.098 µM", "setting": "2 h, Rep2", "value": 0, "unit": "%"}, {"measurement": "mortality at 0.39 µM", "setting": "2 h, Rep1", "value": 0, "unit": "%"}, {"measurement": "mortality at 0.39 µM", "setting": "2 h, Rep2", "value": 0, "unit": "%"}, {"measurement": "mortality at 1.56 µM", "setting": "2 h, Rep1", "value": 0, "unit": "%"}, {"measurement": "mortality at 1.56 µM", "setting": "2 h, Rep2", "value": 0, "unit": "%"}, {"measurement": "mortality at 6.25 µM", "setting": "2 h, Rep1", "value": 0, "unit": "%"}, {"measurement": "mortality at 6.25 µM", "setting": "2 h, Rep2", "value": 0, "unit": "%"}, {"measurement": "mortality at 25 µM", "setting": "2 h, Rep1", "value": 0, "unit": "%"}, {"measurement": "mortality at 25 µM", "setting": "2 h, Rep2", "value": 0, "unit": "%"}, {"measurement": "mortality at 100 µM", "setting": "2 h, Rep1", "value": 0, "unit": "%"}, {"measurement": "mortality at 100 µM", "setting": "2 h, Rep2", "value": 0, "unit": "%"}, {"measurement": "mortality at 0.006 µM", "setting": "6 h, Rep1", "value": 0, "unit": "%"}, {"measurement": "mortality at 0.006 µM", "setting": "6 h, Rep2", "value": 0, "unit": "%"}, {"measurement": "mortality at 0.024 µM", "setting": "6 h, Rep1", "value": 0, "unit": "%"}, {"measurement": "mortality at 0.024 µM", "setting": "6 h, Rep2", "value": 0, "unit": "%"}, {"measurement": "mortality at 0.098 µM", "setting": "6 h, Rep1", "value": 0, "unit": "%"}, {"measurement": "mortality at 0.098 µM", "setting": "6 h, Rep2", "value": 0, "unit": "%"}, {"measurement": "mortality at 0.39 µM", "setting": "6 h, Rep1", "value": 0, "unit": "%"}, {"measurement": "mortality at 0.39 µM", "setting": "6 h, Rep2", "value": 0, "unit": "%"}, {"measurement": "mortality at 1.56 µM", "setting": "6 h, Rep1", "value": 0, "unit": "%"}, {"measurement": "mortality at 1.56 µM", "setting": "6 h, Rep2", "value": 0, "unit": "%"}, {"measurement": "mortality at 6.25 µM", "setting": "6 h, Rep1", "value": 0, "unit": "%"}, {"measurement": "mortality at 6.25 µM", "setting": "6 h, Rep2", "value": 0, "unit": "%"}, {"measurement": "mortality at 25 µM", "setting": "6 h, Rep1", "value": 40, "unit": "%"}, {"measurement": "mortality at 25 µM", "setting": "6 h, Rep2", "value": 40, "unit": "%"}, {"measurement": "mortality at 100 µM", "setting": "6 h, Rep1", "value": 100, "unit": "%"}, {"measurement": "mortality at 100 µM", "setting": "6 h, Rep2", "value": 100, "unit": "%"}, {"measurement": "mortality at 0.006 µM", "setting": "12 h, Rep1", "value": 0, "unit": "%"}, {"measurement": "mortality at 0.006 µM", "setting": "12 h, Rep2", "value": 0, "unit": "%"}, {"measurement": "mortality at 0.024 µM", "setting": "12 h, Rep1", "value": 0, "unit": "%"}, {"measurement": "mortality at 0.024 µM", "setting": "12 h, Rep2", "value": 0, "unit": "%"}, {"measurement": "mortality at 0.098 µM", "setting": "12 h, Rep1", "value": 0, "unit": "%"}, {"measurement": "mortality at 0.098 µM", "setting": "12 h, Rep2", "value": 0, "unit": "%"}, {"measurement": "mortality at 0.39 µM", "setting": "12 h, Rep1", "value": 0, "unit": "%"}, {"measurement": "mortality at 0.39 µM", "setting": "12 h, Rep2", "value": 0, "unit": "%"}, {"measurement": "mortality at 1.56 µM", "setting": "12 h, Rep1", "value": 0, "unit": "%"}, {"measurement": "mortality at 1.56 µM", "setting": "12 h, Rep2", "value": 0, "unit": "%"}, {"measurement": "mortality at 6.25 µM", "setting": "12 h, Rep1", "value": 40, "unit": "%"}, {"measurement": "mortality at 6.25 µM", "setting": "12 h, Rep2", "value": 50, "unit": "%"}, {"measurement": "mortality at 25 µM", "setting": "12 h, Rep1", "value": 100, "unit": "%"}, {"measurement": "mortality at 25 µM", "setting": "12 h, Rep2", "value": 90, "unit": "%"}, {"measurement": "mortality at 100 µM", "setting": "12 h, Rep1", "value": 100, "unit": "%"}, {"measurement": "mortality at 100 µM", "setting": "12 h, Rep2", "value": 100, "unit": "%"}, {"measurement": "mortality at 0.006 µM", "setting": "24 h, Rep1", "value": 0, "unit": "%"}, {"measurement": "mortality at 0.006 µM", "setting": "24 h, Rep2", "value": 0, "unit": "%"}, {"measurement": "mortality at 0.024 µM", "setting": "24 h, Rep1", "value": 0, "unit": "%"}, {"measurement": "mortality at 0.024 µM", "setting": "24 h, Rep2", "value": 0, "unit": "%"}, {"measurement": "mortality at 0.098 µM", "setting": "24 h, Rep1", "value": 0, "unit": "%"}, {"measurement": "mortality at 0.098 µM", "setting": "24 h, Rep2", "value": 0, "unit": "%"}, {"measurement": "mortality at 0.39 µM", "setting": "24 h, Rep1", "value": 0, "unit": "%"}, {"measurement": "mortality at 0.39 µM", "setting": "24 h, Rep2", "value": 0, "unit": "%"}, {"measurement": "mortality at 1.56 µM", "setting": "24 h, Rep1", "value": 50, "unit": "%"}, {"measurement": "mortality at 1.56 µM", "setting": "24 h, Rep2", "value": 60, "unit": "%"}, {"measurement": "mortality at 6.25 µM", "setting": "24 h, Rep1", "value": 100, "unit": "%"}, {"measurement": "mortality at 6.25 µM", "setting": "24 h, Rep2", "value": 90, "unit": "%"}, {"measurement": "mortality at 25 µM", "setting": "24 h, Rep1", "value": 100, "unit": "%"}, {"measurement": "mortality at 25 µM", "setting": "24 h, Rep2", "value": 100, "unit": "%"}, {"measurement": "mortality at 100 µM", "setting": "24 h, Rep1", "value": 100, "unit": "%"}, {"measurement": "mortality at 100 µM", "setting": "24 h, Rep2", "value": 100, "unit": "%"}, {"measurement": "mortality at 0.006 µM", "setting": "48 h, Rep1", "value": 0, "unit": "%"}, {"measurement": "mortality at 0.006 µM", "setting": "48 h, Rep2", "value": 10, "unit": "%"}, {"measurement": "mortality at 0.024 µM", "setting": "48 h, Rep1", "value": 0, "unit": "%"}, {"measurement": "mortality at 0.024 µM", "setting": "48 h, Rep2", "value": 0, "unit": "%"}, {"measurement": "mortality at 0.098 µM", "setting": "48 h, Rep1", "value": 10, "unit": "%"}, {"measurement": "mortality at 0.098 µM", "setting": "48 h, Rep2", "value": 10, "unit": "%"}, {"measurement": "mortality at 0.39 µM", "setting": "48 h, Rep1", "value": 40, "unit": "%"}, {"measurement": "mortality at 0.39 µM", "setting": "48 h, Rep2", "value": 40, "unit": "%"}, {"measurement": "mortality at 1.56 µM", "setting": "48 h, Rep1", "value": 90, "unit": "%"}, {"measurement": "mortality at 1.56 µM", "setting": "48 h, Rep2", "value": 100, "unit": "%"}, {"measurement": "mortality at 6.25 µM", "setting": "48 h, Rep1", "value": 100, "unit": "%"}, {"measurement": "mortality at 6.25 µM", "setting": "48 h, Rep2", "value": 100, "unit": "%"}, {"measurement": "mortality at 25 µM", "setting": "48 h, Rep1", "value": 100, "unit": "%"}, {"measurement": "mortality at 25 µM", "setting": "48 h, Rep2", "value": 100, "unit": "%"}, {"measurement": "mortality at 100 µM", "setting": "48 h, Rep1", "value": 100, "unit": "%"}, {"measurement": "mortality at 100 µM", "setting": "48 h, Rep2", "value": 100, "unit": "%"}]}]}
